Where only a bound is given, the exact number is not on record here.

The assay deals with HDACs (HeLa cell nuclear extracts). Briefly: HDAC enzymatic activity, Biomol Color de Lys system. In kind it is biochemical. The procedure: (e) An In Vitro Assay which Determines the Ability of a Test Compound to Inhibit HDAC Enzymatic Activity.
HDAC inhibitory activity was assessed using the Biomol Color de Lys system (AK-500, Biomol, Plymouth Meeting, Pa.). Briefly, HeLa cell nuclear extracts were used as a source of HDACs. Different concentrations of test compounds were serially diluted in dimethylsulphoxide (DMSO) and added to HeLa cell nuclear extracts in the presence of a colorimetric artificial substrate. Final assay condition contained 50 mM Tris/Cl, pH 8.0, 137 mM NaCl, 2.7 mM KCl and 1 mM MgCl2. Reactions were carried in room temperature (25° C.) for 1 hour before addition of developer for termination. Relative enzyme activity was measured in the WALLAC Victor II 1420 microplate reader as floorescence intensity (excitation: 350-380 nm; emission: 440-460 nm). Data were analyzed using GraphPad Prism (v4.0a) with a sigmoidal dose response curve fitting for IC50 calculation.

Molecule `COc1ccc(Nc2nc(-c3cccc4[nH]ncc34)nc3cc(CN(C)c4ncc(C(=O)NO)cn4)sc23)cc1` [Compound 165] registered an IC50 of under 100 nM. `CN(CC1CCN(c2ncc(C(=O)NO)cn2)CC1)c1cc2nc(-c3cccc4[nH]ncc34)nc(N3CCOCC3)c2s1` [Compound 49] yielded an IC50 of 100 to 1000 nM. Consider `CNc1ccc(-c2nc(N3CCOCC3)c3sc(CN(C)Cc4nc5cc(/C=C/C(=O)NO)ccc5n4C)cc3n2)cn1` [Compound 329], for which the IC50 fell in the range of 100 to 1000 nM. In turn, `COc1ccc(-c2nc(N3CCOCC3)c3sc(Nc4ncc(C(=O)NO)cn4)cc3n2)cn1` [Compound 253] returned an IC50 of 100 to 1000 nM. Molecule `CN(Cc1cc2nc(-c3cccc4[nH]c(=S)[nH]c34)nc(N3CCOCC3)c2s1)c1ncc(C(=O)NO)cn1` [Compound 315] came in with an IC50 of under 100 nM.

As to `CC1CN(c2nc(-c3cccc4[nH]ncc34)nc3cc(CN(C)c4ncc(C(=O)NO)cn4)sc23)CC(C)O1` (centres unmarked) [Compound 65], the IC50 was under 100 nM. `COc1ccc(-c2nc(N3CCOCC3)c3sc(NCCCCC(=O)NO)cc3n2)cn1` [Compound 230]: the IC50 was under 100 nM. Molecule `NCCN(Cc1cc2nc(-c3cccc4[nH]ncc34)nc(N3CCOCC3)c2s1)c1ncc(C(=O)NO)cn1` [Compound 94] had an IC50 of under 100 nM. The same measure for `CNc1ccc(-c2nc(N3CCOCC3)c3sc(NS(=O)(=O)c4ccc(/C=C/C(=O)NO)cc4)cc3n2)cn1` [Compound 223]: under 100 nM; for `CN(Cc1cc2cc(-c3cccc4[nH]ncc34)nc(N3CCOCC3)c2s1)c1ncc(C(=O)NO)cn1` [Compound 74]: under 100 nM. Regarding `CN(Cc1cc2nc(-c3cccc4[nH]ncc34)nc(NCCO)c2s1)c1ncc(C(=O)NO)cn1` [Compound 161], the IC50 is under 100 nM.

With `CC1COCC(C)N1c1nc(-c2cccc3[nH]ncc23)nc2cc(CN(C)c3ncc(C(=O)NO)cn3)sc12` (centres unmarked) [Compound 66], the IC50 was under 100 nM.

For `CCN(Cc1cc2nc(-c3ccc(N)cc3)nc(N3CCOCC3)c2s1)c1ncc(C(=O)NO)cn1` [Compound 215], the IC50 was under 100 nM.

The molecule `Nc1ccc(-c2nc(N3CCOCC3)c3sc(Nc4ncc(C(=O)NO)cn4)cc3n2)cc1` [Compound 273] returned an IC50 of 100 to 1000 nM. As to `CCCc1nc2cc(/C=C/C(=O)NO)ccc2n1CCNCc1cc2nc(-c3ccc(NC)nc3)nc(N3CCOCC3)c2s1` [Compound 323], the IC50 is 100 to 1000 nM.

For the molecule `CN(Cc1cc2nc(-c3cccc4[nH]ncc34)nc(N3CCOCC3)c2s1)c1ccc(C(=O)NO)cc1` [Compound 79], the IC50 was under 100 nM. Under `CN(C)CCN(Cc1cc2nc(-c3cccc4[nH]ncc34)nc(N3CCOCC3)c2s1)c1ncc(C(=O)NO)cn1` [Compound 95] stands 100 to 1000 nM. Under `CC(C)(Nc1ncc(C(=O)NO)cn1)c1cc2nc(-c3ccc(N)cc3)nc(N3CCOCC3)c2s1` [Compound 269, 2-(2-(2-(4-Aminophenyl)-4-morpholinothieno[3,2-d]pyrimidin-6-yl)propan-2-ylamino)-N-hydroxypyrimidine-5-carboxamide] stands under 100 nM; under `CN(Cc1cc2nc(-c3ccc(N)cc3)nc(N3CCOCC3)c2s1)Cc1nc2cc(/C=C/C(=O)NO)ccc2n1C` [Compound 327], 100 to 1000 nM.

`CN(Cc1cc2nc(-c3cccc4[nH]c(=O)sc34)nc(N3CCOCC3)c2s1)c1ncc(C(=O)NO)cn1` [Compound 317] registered an IC50 of under 100 nM.

Turning to `COCCNc1nc(-c2cccc3[nH]ncc23)nc2cc(CN(C)c3ncc(C(=O)NO)cn3)sc12` [Compound 160], the IC50 is under 100 nM. `O=C(CCCCNc1cc2nc(-c3cccc4[nH]ncc34)nc(N3CCOCC3)c2s1)NO` [Compound 18] displayed an IC50 of under 100 nM. `COc1ncc(-c2nc(N3CCOCC3)c3sc(NS(=O)(=O)c4cccc(/C=C/C(=O)NO)c4)cc3n2)cn1` [Compound 220] returned an IC50 of under 100 nM. Under `O=C(/C=C/c1cc2nc(-c3cccc4[nH]ncc34)nc(N3CCOCC3)c2s1)NO` [Compound 46] stands 1000 to 10000 nM; under `CNc1ccc(-c2nc(N3CCOCC3)c3sc(C(C)(C)N(C)c4ncc(C(=O)NO)cn4)cc3n2)cn1` [Compound 241], under 100 nM; under `CN(C)c1nc(-c2cccc3[nH]ncc23)nc2cc(CN(C)c3ncc(C(=O)NO)cn3)sc12` [Compound 159], under 100 nM. `CN(Cc1cc2nc(-c3ccc(N)cc3)nc(N3CCOCC3)c2s1)c1ccc(C(=O)NO)cc1` [Compound 206] yielded an IC50 of under 100 nM.

In turn, `CCCc1nc2cc(/C=C/C(=O)NO)ccc2n1CCNCc1cc2nc(-c3ccc(N)cc3)nc(N3CCOCC3)c2s1` [Compound 325] showed an IC50 of 100 to 1000 nM.

Consider `CC(=O)NCCN(Cc1cc2nc(-c3cccc4[nH]ncc34)nc(N3CCOCC3)c2s1)c1ncc(C(=O)NO)cn1` [Compound 96], for which the IC50 was under 100 nM. Consider `COc1ccc(-c2nc(N3CCOCC3)c3sc(C(C)N(C)c4ncc(C(=O)NO)cn4)cc3n2)cn1` (centres unmarked) [Compound 247, N-hydroxy-2-((1-(2-(6-methoxypyridin-3-yl)-4-morpholinothieno[3,2-d]pyrimidin-6-yl)ethyl)(methyl)amino)pyrimidine-5-carboxamide], for which the IC50 is under 100 nM. `O=C(CCCCNc1cc2nc(-c3cc(O)ccc3F)nc(N3CCOCC3)c2s1)NO` [Compound 231] showed an IC50 of under 100 nM. As to `COCCN(CCOC)c1nc(-c2cccc3[nH]ncc23)nc2cc(CN(C)c3ncc(C(=O)NO)cn3)sc12` [Compound 163], the IC50 was under 100 nM.

In the case of `CN(Cc1cc2nc(-c3cccc(C(N)=O)c3)nc(N3CCOCC3)c2s1)c1ncc(C(=O)NO)cn1` [Compound 142, 2-(((2-(3-carbamoylphenyl)-4-morpholinothieno[3,2-d]pyrimidin-6-yl)methyl)(methyl)amino)-N-hydroxypyrimidine-5-carboxamide], the half-inhibitory concentration (IC50) is under 100 nM. `Cn1c(CNCc2cc3nc(-c4ccc(N)cc4)nc(N4CCOCC4)c3s2)nc2cc(/C=C/C(=O)NO)ccc21` [Compound 326]: the IC50 fell in the range of 100 to 1000 nM. For the molecule `CS(=O)(=O)N1CCN(Cc2cc3nc(-c4cccc5[nH]ncc45)nc(NCCCCCCC(=O)NO)c3s2)CC1` [Compound 36], the IC50 was under 100 nM. Turning to `CN(Cc1cc2nc(-c3cccc(NS(C)(=O)=O)c3)nc(N3CCOCC3)c2s1)c1ncc(C(=O)NO)cn1` [Compound 288], the IC50 is under 100 nM. `COc1ccccc1Nc1nc(-c2cccc3[nH]ncc23)nc2cc(CN(C)c3ncc(C(=O)NO)cn3)sc12` [Compound 167] displayed an IC50 of under 100 nM. Under `O=C(/C=C/c1ccc(S(=O)(=O)Nc2cc3nc(-c4cccc5[nH]ncc45)nc(N4CCOCC4)c3s2)cc1)NO` [Compound 50] stands under 100 nM. The molecule `O=C(NO)c1ccc(CNCc2cc3nc(-c4cccc5[nH]ncc45)nc(N4CCOCC4)c3s2)cc1` [Compound 203] showed an IC50 of 100 to 1000 nM.

For `O=C(/C=C/c1cccc(S(=O)(=O)Nc2cc3nc(-c4cccc5[nH]ncc45)nc(N4CCOCC4)c3s2)c1)NO` [Compound 216], the IC50 is under 100 nM. The molecule `CC(C)OC(=O)Nc1ccc(-c2nc(N3CCOCC3)c3sc(CN(C)c4ncc(C(=O)NO)cn4)cc3n2)cc1` [Compound 287] displayed an IC50 of under 100 nM. In the case of `CN(Cc1cc2nc(-c3cccc4[nH]c(=O)[nH]c34)nc(N3CCOCC3)c2s1)c1ncc(C(=O)NO)cn1` [Compound 314], the IC50 was under 100 nM. The molecule `CCCc1nc2cc(/C=C/C(=O)NO)ccc2n1CCN(C)Cc1cc2nc(-c3ccc(NC)nc3)nc(N3CCOCC3)c2s1` [Compound 322] yielded an IC50 of 100 to 1000 nM. Molecule `O=C(CCCCCNc1cc2nc(-c3cccc4[nH]ncc34)nc(N3CCOCC3)c2s1)NO` [Compound 19] yielded an IC50 of under 100 nM. As to `CC(=O)c1ccc(F)c(-c2nc(N3CCOCC3)c3sc(CN(C)c4ncc(C(=O)NO)cn4)cc3n2)c1` [Compound 301], the IC50 is under 100 nM.

In the case of `CN(c1ncc(C(=O)NO)cn1)c1cc2nc(-c3ccc(N)cc3)nc(N3CCOCC3)c2s1` [Compound 272], the IC50 was under 100 nM. `CN(Cc1cc2nc(-c3cccc4c3CNC4=O)nc(N3CCOCC3)c2s1)c1ncc(C(=O)NO)cn1` [Compound 181]: the IC50 is under 100 nM.

The molecule `COc1cccc(Nc2nc(-c3cccc4[nH]ncc34)nc3cc(CN(C)c4ncc(C(=O)NO)cn4)sc23)c1` [Compound 166] had an IC50 of under 100 nM.

Consider `COc1ncc(-c2nc(N3CCOCC3)c3sc(NS(=O)(=O)c4ccc(/C=C/C(=O)NO)cc4)cc3n2)cn1` [Compound 219], for which the IC50 is under 100 nM.

As to `CN(Cc1cc2nc(-c3cccc4c3CC(=O)N4)nc(N3CCOCC3)c2s1)c1ncc(C(=O)NO)cn1` [Compound 178], the IC50 is under 100 nM. `CN1CCN(c2nc(-c3cccc4[nH]ncc34)nc3cc(CN(C)c4ncc(C(=O)NO)cn4)sc23)CC1` [Compound 61] registered a concentration for half-maximal inhibition (IC50) of under 100 nM. `C#CCCN(Cc1cc2nc(-c3cccc4[nH]ncc34)nc(N3CCOCC3)c2s1)c1ncc(C(=O)NO)cn1` [Compound 98] returned an IC50 of under 100 nM. Take `CN(Cc1cc2nc(-c3cccc(C(C)(C)O)c3)nc(N3CCOCC3)c2s1)c1ncc(C(=O)NO)cn1` [Compound 302]: the IC50 was under 100 nM. Molecule `CN(Cc1cc2nc(-c3ccc4c(c3)CCN4)nc(N3CCOCC3)c2s1)c1ncc(C(=O)NO)cn1` [Compound 193] had an IC50 of under 100 nM. The molecule `Cn1cc(-c2nc(N3CCOCC3)c3sc(CN(CCO)c4ncc(C(=O)NO)cn4)cc3n2)cn1` [Compound 313] came in with an IC50 of under 100 nM. Under `COc1ccc(-c2nc(N3CCOCC3)c3sc(C(C)(C)Nc4ncc(C(=O)NO)cn4)cc3n2)cn1` [Compound 250, N-Hydroxy-2-(2-(2-(6-methoxypyridin-3-yl)-4-morpholinothieno[3,2-d]pyrimidin-6-yl)propan-2-ylamino)pyrimidine-5-carboxamide] stands under 100 nM.

The values are drawn from patent US8906909B2 (Curis, Inc., priority 2009, dated 2014).
